Results as given in patent US20080306056A1, “PYRAZOLE-DERIVATIVES AS FACTOR Xa INHIBITORS” (SANOFI-AVENTIS DEUTSCHLAND GMBH, priority 2002, published 2008).

target: T1, human factor Xa (Homo sapiens, UniProt P00742); experiment: Factor Xa assay (chromogenic, purified enzyme); format: biochemical; settings: inhibition constant for factor Xa; chromogenic substrate S-2765 140 μM, enzyme 0.5 nM, 25° C., pH 7.8; Ki=IC50/{1+(substrate concentration/Km)}; read-out: Ki(FXa)
T1 construct: 25 μl human factor Xa (Enzyme Research Laboratories, Inc; South Bend, Ind.); purchased Enzyme Research Laboratories, Inc; South Bend, Ind
T1 sequence (P00742 235-488 limits assumed): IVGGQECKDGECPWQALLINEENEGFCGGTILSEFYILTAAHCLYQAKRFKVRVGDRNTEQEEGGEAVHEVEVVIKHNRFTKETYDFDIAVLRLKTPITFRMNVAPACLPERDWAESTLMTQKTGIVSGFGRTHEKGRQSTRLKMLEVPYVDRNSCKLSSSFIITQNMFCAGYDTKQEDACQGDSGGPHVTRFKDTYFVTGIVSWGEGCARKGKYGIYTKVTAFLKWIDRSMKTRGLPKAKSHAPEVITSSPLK
T1 sequence (P00742 41-179 partner limits assumed): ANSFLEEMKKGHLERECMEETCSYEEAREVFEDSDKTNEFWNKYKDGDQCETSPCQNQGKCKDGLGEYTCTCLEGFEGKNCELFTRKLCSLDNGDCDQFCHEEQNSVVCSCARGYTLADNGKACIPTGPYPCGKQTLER
In short: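 Human factor Xa (0.5 nM) pre-incubated 10 min with compound in TBS-PEG/DMSO, then S-2765 (140 μM) added; initial hydrolysis rate read at 405 nm, 25°C. IC50 by linear regression of relative rate vs log concentration; Ki = IC50/(1+[S]/Km).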

Ki [nM] | SMILES
145 | CC(C)N1CCC(NC(=O)c2cc(C(=O)N3CCC(S(C)(=O)=O)C3)nn2Cc2cc(-c3ccc(Cl)s3)on2)CC1 (centres unmarked) [Example 39, 2-[5-(5-Chloro-thiophen-2-yl)-isoxazol-3-ylmethyl]-5-(3-methanesulfonyl-pyrrolidine-1-carbonyl)-2H-pyrazole-3-carboxylic acid (1-isopropyl-piperidin-4-yl)-amide]
491 | CC(C)N1CCC(NC(=O)c2cc(-c3ccc(Cl)s3)n(Cc3cc(-c4ccc(Cl)s4)on3)n2)CC1 [Example 6, 5-(5-Chloro-thiophen-2-yl)-1-[5-(5-chloro-thiophen-2-yl)-isoxazol-3-ylmethyl]-1H-pyrazole-3-carboxylic acid (1-isopropyl-piperidin-4-yl)-amide]
195 | CC(C)N1CCC(NC(=O)c2cc(C(=O)N3CCC(CO)CC3)nn2Cc2cc(-c3ccc(Cl)s3)on2)CC1 [Example 37, 2-[5-(5-Chloro-thiophen-2-yl)-isoxazol-3-ylmethyl]-5-(4-hydroxymethyl-piperidine-1-carbonyl)-2H-pyrazole-3-carboxylic acid (1-isopropyl-piperidin-4-yl)-amide]
165 | O=C(NCC1CCN(c2ccncc2)CC1)c1cc(-c2cccs2)nn1Cc1cc(-c2ccc(Cl)s2)on1 [Example 16, 2-[5-(5-Chloro-thiophen-2-yl)-isoxazol-3-ylmethyl]-5-thiophen-2-yl-2H-pyrazole-3-carboxylic acid (3,4,5,6-tetrahydro-2H-[1,4′]bipyridinyl-4-ylmethyl)-amide]
104 | CC(C)N1CCC(NC(=O)c2cc(C(=O)N3CC(O)C3)nn2Cc2cc(-c3ccc(Cl)s3)on2)CC1 [Example 83, 2-[5-(5-Chloro-thiophen-2-yl)-isoxazol-3-ylmethyl]-5-(3-hydroxy-azetidine-1-carbonyl)-2H-pyrazole-3-carboxylic acid (1-isopropyl-piperidin-4-yl)-amide]
18 | CC(C)N1CCC(NC(=O)c2cc(C(=O)OCC3CC3)nn2CC(=O)Nc2ccc(Cl)cn2)CC1 [Example 96, 1-[(5-Chloro-pyridin-2-ylcarbamoyl)-methyl]-5-(1-isopropyl-piperidin-4-ylcarbamoyl)-1H-pyrazole-3-carboxylic acid cyclopropylmethyl ester]
42 | CC(C)N1CCC(NC(=O)c2cc(-c3ccco3)n(Cc3cc(-c4ccc(Cl)s4)on3)n2)CC1 [Example 84, 1-[5-(5-Chloro-thiophen-2-yl)-isoxazol-3-ylmethyl]-5-furan-2-yl-1H-pyrazole-3-carboxylic acid (1-isopropyl-piperidin-4-yl)-amide]

SMILES | Ki [nM]
CC(C)N1CCC(NC(=O)c2cc(C(=O)NCCCO)nn2Cc2cc(-c3ccc(Cl)s3)on2)CC1 [Example 62, 1-[5-(5-Chloro-thiophen-2-yl)-isoxazol-3-ylmethyl]-1H-pyrazole-3,5-dicarboxylic acid 3-[(3-hydroxy-propyl)-amide] 5-[(1-isopropyl-piperidin-4-yl)-amide]] | 80
CC(C)N1CCC(NC(=O)c2cc(C(=O)NCC(N)=O)nn2Cc2cc(-c3ccc(Cl)s3)on2)CC1 [Example 60, 1-[5-(5-Chloro-thiophen-2-yl)-isoxazol-3-ylmethyl]-1H-pyrazole-3,5-dicarboxylic acid 3-carbamoylmethyl-amide 5-[(1-isopropyl-piperidin-4-yl)-amide]] | 56
CONC(=O)c1cc(C(=O)NC2CCN(C(C)C)CC2)n(Cc2cc(-c3ccc(Cl)s3)on2)n1 [Example 59, 1-[5-(5-Chloro-thiophen-2-yl)-isoxazol-3-ylmethyl]-1H-pyrazole-3,5-dicarboxylic acid 5-[(1-isopropyl-piperidin-4-yl)-amide] 3-(methoxy-amide)] | 94
CC(C)N1CCC(NC(=O)c2cc(C(=O)N(CCO)CCO)nn2Cc2cc(-c3ccc(Cl)s3)on2)CC1 [Example 88, 1-[5-(5-Chloro-thiophen-2-yl)-isoxazol-3-ylmethyl]-1H-pyrazole-3,5-dicarboxylic acid 3-[bis-(2-hydroxy-ethyl)-amide] 5-[(1-isopropyl-piperidin-4-yl)-amide]] | 106
